The values below come from paper PMC6028563, “Probing Substituents in the 1- and 3-Position: Tetrahydropyrazino-Annelated Water-Soluble Xanthine Derivatives as Multi-Target Drugs With Potent Adenosine Receptor Antagonistic Activity” (Frontiers in Chemistry, 2018).

Several values for one entry are separate records, joined by “and”; a condition that tells them apart may be missing. Equal entries are not always repeated. Where two headings read alike, the source gives them in different places.

In one assay the target is T1, human A1 AR (Homo sapiens, UniProt P30542).
T1 construct: expressed in transfected cells; host or cells: CHO cells
T1 sequence (P30542 1-326): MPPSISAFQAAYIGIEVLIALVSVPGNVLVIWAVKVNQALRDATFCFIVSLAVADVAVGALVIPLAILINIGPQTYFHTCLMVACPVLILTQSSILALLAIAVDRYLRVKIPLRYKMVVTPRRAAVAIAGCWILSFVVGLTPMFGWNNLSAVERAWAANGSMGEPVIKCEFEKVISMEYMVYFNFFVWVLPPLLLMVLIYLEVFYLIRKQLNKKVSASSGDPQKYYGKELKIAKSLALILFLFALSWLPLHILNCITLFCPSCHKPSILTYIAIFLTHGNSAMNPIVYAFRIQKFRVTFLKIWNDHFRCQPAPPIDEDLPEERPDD
The following applies: cited from earlier work.

Another assay addresses T2, human A2A AR (Homo sapiens, UniProt P29274).
T2 construct: expressed in transfected cells; host or cells: CHO cells
As to conditions: cited from earlier work; for Ki: human (h), 2007, 2013.

Another assay concerns the target T3, recombinant human MAO-A (Homo sapiens, UniProt P21397).
T3 construct: purchased Sigma-Aldrich M7316; host or cells: baculovirus-infected insect cells
T3 sequence (P21397 1-527): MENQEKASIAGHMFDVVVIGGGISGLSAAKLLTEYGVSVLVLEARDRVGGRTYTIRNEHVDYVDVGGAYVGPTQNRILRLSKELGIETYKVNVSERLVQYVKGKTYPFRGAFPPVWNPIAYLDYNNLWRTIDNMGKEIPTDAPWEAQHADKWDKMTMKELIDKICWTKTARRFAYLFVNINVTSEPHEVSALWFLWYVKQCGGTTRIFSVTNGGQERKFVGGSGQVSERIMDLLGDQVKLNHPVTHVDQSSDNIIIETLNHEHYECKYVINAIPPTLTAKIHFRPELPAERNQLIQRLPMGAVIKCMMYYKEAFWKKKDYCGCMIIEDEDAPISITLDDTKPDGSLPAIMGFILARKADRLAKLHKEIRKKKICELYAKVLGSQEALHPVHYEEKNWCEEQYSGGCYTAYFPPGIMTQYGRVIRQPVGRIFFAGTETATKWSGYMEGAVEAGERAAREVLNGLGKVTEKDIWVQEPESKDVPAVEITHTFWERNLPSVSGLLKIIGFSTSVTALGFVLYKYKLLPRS
In words: Monoamine oxidase assay (Amplex Red), MAO-A. The format is biochemical. In outline: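 Recombinant human MAO-A and MAO-B, expressed in baculovirus-infected insect cells, were assayed by Amplex Red fluorometric detection. Rat MAO-B inhibition used mitochondria-enriched fractions from male Sprague Dawley rat liver.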

The target of a further assay is T4, human A3 AR (Homo sapiens, UniProt P0DMS8).
T4 construct: expressed in transfected cells; host or cells: CHO cells
T4 sequence (P0DMS8 1-318): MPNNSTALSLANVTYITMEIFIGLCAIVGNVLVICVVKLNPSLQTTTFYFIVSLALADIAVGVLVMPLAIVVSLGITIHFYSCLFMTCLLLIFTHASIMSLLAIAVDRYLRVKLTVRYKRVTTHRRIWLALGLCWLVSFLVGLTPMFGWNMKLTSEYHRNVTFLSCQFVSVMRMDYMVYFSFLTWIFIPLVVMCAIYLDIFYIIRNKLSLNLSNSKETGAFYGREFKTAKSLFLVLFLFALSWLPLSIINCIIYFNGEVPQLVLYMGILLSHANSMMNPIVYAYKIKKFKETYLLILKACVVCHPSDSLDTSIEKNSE
As to conditions: cited from earlier work; for Ki: human (h).

The next assay concerns the target T5, recombinant human MAO-B (Homo sapiens, UniProt P27338).
T5 construct: purchased Sigma-Aldrich M7441; host or cells: baculovirus-infected insect cells
T5 sequence (P27338 1-520): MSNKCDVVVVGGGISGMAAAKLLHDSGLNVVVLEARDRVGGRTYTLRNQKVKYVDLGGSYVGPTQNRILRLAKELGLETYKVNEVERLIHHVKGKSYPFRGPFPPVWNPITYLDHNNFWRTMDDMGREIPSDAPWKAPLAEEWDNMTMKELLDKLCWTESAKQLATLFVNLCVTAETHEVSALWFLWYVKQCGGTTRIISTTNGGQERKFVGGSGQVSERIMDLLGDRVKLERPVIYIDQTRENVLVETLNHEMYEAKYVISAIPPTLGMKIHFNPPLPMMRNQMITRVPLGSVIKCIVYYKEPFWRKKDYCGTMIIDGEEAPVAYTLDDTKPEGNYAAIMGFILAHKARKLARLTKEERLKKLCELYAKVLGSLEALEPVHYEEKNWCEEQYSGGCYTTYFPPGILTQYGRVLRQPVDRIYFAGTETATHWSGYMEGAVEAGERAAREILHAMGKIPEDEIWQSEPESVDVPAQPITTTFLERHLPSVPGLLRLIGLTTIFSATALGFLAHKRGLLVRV
As to conditions: human (h), 2013, cited from earlier work.

The target in the next assay is T6, human A2B AR (Homo sapiens, UniProt P29275).
T6 construct: expressed in transfected cells; host or cells: CHO cells
T6 sequence (P29275 1-332): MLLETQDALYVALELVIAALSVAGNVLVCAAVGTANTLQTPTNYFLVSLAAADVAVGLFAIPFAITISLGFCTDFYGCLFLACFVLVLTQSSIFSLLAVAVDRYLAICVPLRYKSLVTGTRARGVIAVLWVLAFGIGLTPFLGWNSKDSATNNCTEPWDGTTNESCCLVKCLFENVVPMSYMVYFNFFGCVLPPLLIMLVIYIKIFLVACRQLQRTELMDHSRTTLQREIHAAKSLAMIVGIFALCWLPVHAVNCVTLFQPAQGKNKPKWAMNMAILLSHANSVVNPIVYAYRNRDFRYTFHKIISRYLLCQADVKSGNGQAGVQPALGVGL
The following applies: cited from earlier work.

For assay [1], the system named is haloperidol-induced catalepsy. Set-up: method as in Wang et al., 2017; Robinson et al., 2015. The following applies: rat; ref Wang et al., 2017; Robinson et al., 2015; cited from earlier work.
The target of a further assay is T7, rat A2A AR (Rattus norvegicus, UniProt P30543).
T7 construct: A2A ARs of rat brain striatal membrane preparations; from tissue; host or cells: rat brain striatum membranes
As to conditions: cited from earlier work.

Another assay concerns rat MAO-B. Set-up: method as in Brunschweiger et al., 2014, 2016. As to conditions: rat (r); Figure 3 and introduction; ref Brunschweiger et al., 2014, 2016; cited from earlier work.
Where [2] appears, read: human (h), Figure 3 and introduction, ref Drabczynska et al., 2007, Koch et al., 2013, Brunschweiger et al., 2014, 2016, read-out: A1 (Ki).
Where [3] appears, read: Figure 3 and introduction, ref Drabczynska et al., Koch et al., Brunschweiger et al., 2014, 2016.
Where [4] appears, read: Figure 2 and introduction, ref Chen et al., 2002, Pretorius et al., 2008, Wang et al., 2017, Stössel et al.
Setting [5] is: Figure 3 and introduction, ref Drabczynska et al., 2007, Koch et al., Brunschweiger et al., 2014, 2016.
[6] abbreviates: radioligand, ref Müller et al., 2000.

T2 sequence (P29274 whole entry): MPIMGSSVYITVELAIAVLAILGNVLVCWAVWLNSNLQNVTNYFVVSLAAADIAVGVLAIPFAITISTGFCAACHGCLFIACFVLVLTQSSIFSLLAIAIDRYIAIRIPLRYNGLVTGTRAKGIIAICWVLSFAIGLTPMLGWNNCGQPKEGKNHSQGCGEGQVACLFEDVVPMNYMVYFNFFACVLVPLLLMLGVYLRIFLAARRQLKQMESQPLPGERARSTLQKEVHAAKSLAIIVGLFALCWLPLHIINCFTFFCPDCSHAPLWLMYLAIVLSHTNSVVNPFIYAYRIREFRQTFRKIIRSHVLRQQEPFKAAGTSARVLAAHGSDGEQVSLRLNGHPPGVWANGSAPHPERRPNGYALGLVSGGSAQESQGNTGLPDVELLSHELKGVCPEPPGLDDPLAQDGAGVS
T7 sequence (P30543 whole entry): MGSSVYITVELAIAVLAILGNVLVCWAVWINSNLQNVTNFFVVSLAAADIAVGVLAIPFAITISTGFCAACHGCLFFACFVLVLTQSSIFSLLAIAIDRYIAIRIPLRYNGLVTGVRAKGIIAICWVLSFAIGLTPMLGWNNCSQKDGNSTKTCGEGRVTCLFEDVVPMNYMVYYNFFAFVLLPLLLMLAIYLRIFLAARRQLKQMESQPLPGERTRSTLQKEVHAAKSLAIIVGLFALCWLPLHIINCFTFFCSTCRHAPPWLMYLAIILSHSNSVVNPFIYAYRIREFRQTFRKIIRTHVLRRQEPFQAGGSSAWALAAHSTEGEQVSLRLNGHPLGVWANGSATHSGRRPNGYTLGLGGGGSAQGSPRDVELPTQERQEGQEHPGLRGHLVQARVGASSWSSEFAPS

One may read the Ki as the equilibrium dissociation constant of an inhibitor or competing ligand from its target. For “1,3-Dimethyl-6,7,8,9-tetrahydropyrazino[2,1-f ]purine-2,4(1H,3H)-dione [Compound 10c]”, the Ki on human A1 AR (setting [2]) is 116 nM; at human A2A AR (setting [3]), 94 nM.

What is called IC50 is the concentration that inhibits the measured activity by half. `Cn1c(=O)c2c(nc(C=Cc3cccc(Cl)c3)n2C)n(C)c1=O` [CSC, 8-m-Chlorostyrylcaffeine]: the “% inhibition of radioligand binding at indicated concentration, A1 vs. [^3H]CCPA” value at human A1 AR (at 10,000 nM, ref Müller and Jacobson (2011), Brunschweiger et al. (2014)) was 14%. In addition, the inhibition constant Ki at human A1 AR (read-out: Ki, A1 vs. [^3H]CCPA, standard antagonists, ref Müller and Jacobson (2011), Brunschweiger et al. (2014)) was more than 10000 nM; at human A3 AR (standard antagonists, ref Müller and Jacobson (2011), Brunschweiger et al. (2014), read-out: Ki, A3 vs. [^3H]PSB-11), more than 10 µM. On recombinant human MAO-A (at 10,000 nM, read-out: % inhibition at indicated concentration, Human MAO-A), the inhibition at 10 µM was 23%. In addition, the IC50 at recombinant human MAO-A (n = 3, read-out: IC50 ± SEM, Human MAO-A) is more than 10 µM.

With `Cn1c(=O)c2c(nc(/C=C/C=C/c3cccc(Br)c3)n2C)n(C)c1=O` [Compound 4], at recombinant human MAO-B (setting [4]), the IC50 is 37.9 nM.

Turning to `O=C(CCCc1ccccc1)Nc1nc2ccccc2c(=O)s1` [Compound 6, N-(4-oxo-4H-3,1-benzothiazin-2-yl)-4-phenylbutanamide], the Ki is more than 1000 nM on human A2B AR (human (h), Figure 2, ref Chen et al., 2002, Stössel et al., 2013) and more than 1 µM at human A3 AR (Figure 2, ref Chen et al., 2002, Stössel et al., 2013, Mihara et al., 2007, read-out: A3 (Ki)).

Regarding `Cc1ccc(-c2cc(-c3cccc(C(=O)N4CCCCC4)c3)nc(N)n2)o1` [Compound 8], in [1], the “effect in haloperidol-induced catalepsy model” value is listed as “in vivo efficacy”.

In the case of `Cn1c(=O)c2c(nc3n2CCCN3Cc2ccccc2)n(C)c1=O` [Compound 9a], the Ki on human A1 AR (setting [2]) is 249 nM; at human A2A AR (setting [3]), 253 nM.

For the compound `COc1ccccc1CN1CCCn2c1nc1c2c(=O)n(C)c(=O)n1C` [Compound 9b], on recombinant human MAO-B (setting [5]), the IC50 was 1800 nM. The figures for the inhibition constant (Ki) at human A1 AR (setting [2]) and on human A2A AR (setting [3]) were 605 nM and 417 nM, respectively.

Turning to `Cn1c(=O)c2c(nc3n2CCN(Cc2cc(F)c(Cl)cc2Cl)C3)n(C)c1=O` [Compound 10a, 8-(2,4-dichloro-5-fluorobenzyl)-1,3-dimethyl-6,7,8,9-tetrahydropyrazino[2,1-f]purine-2,4(1H,3H)-dione], the IC50 on recombinant human MAO-B (setting [5]) is 508 nM. In addition, the Ki on human A1 AR (setting [2]) was 217 nM; on human A2A AR (setting [3]), 268 nM.

As for `Cn1c(=O)c2c(nc3n2CCN(Cc2ccc(Cl)c(Cl)c2)C3)n(C)c1=O` [Compound 10b, 8-(3,4-Dichlorobenzyl)-1,3-dimethyl-6,7,8,9-tetrahydropyrazino[2,1-f]purine-2,4(1H,3H)-dione], the Ki at rat A2A AR (rat (r), Figure 3 and introduction, ref Brunschweiger et al., 2014, 2016) is 322 nM. Further, the IC50 in the assay with rat MAO-B was 260 nM.

As to `Cn1c(=O)c2c(nc(-c3ccc(C(=O)Nc4ccccc4)cc3)n2C)n(C)c1=O` [PX-D-P6], the IC50 at recombinant human MAO-B (setting [4]) was 260 nM and 290 nM. The “effect in haloperidol-induced catalepsy model” value in assay [1] is listed as “anti-cataleptic effects”. Moreover, at human A2A AR (Figure 2 and introduction, ref Chen et al., 2002, Wang et al., 2017, Stössel et al., Mihara et al.), the Ki is 330 nM.

In general, Kd refers to the free concentration of one partner at which half of the binding sites on the other are occupied at equilibrium, for simple one-to-one binding. On to `C#CCn1c(=O)c2c(nc(C=Cc3cccc(OC)c3)n2C)n(CCCO)c1=O` [[^3H]MSX-2, [^3H]3-(3-hydroxypropyl)-7-methyl-8-(m-methoxystyryl)-1-propargylxanthine], for which the Kd is 8 nM at rat A2A AR (setting [6]) and 7.3 nM at human A2A AR (setting [6]).

As for “[^3H]8-(4-[4-(4-chlorophenyl)piperazine-1-sulfonyl]phenyl)-1-propyl-2,3,6,7-tetrahydro-1H-purine-2,6-Dione [[^3H]PSB-603]”, at human A2B AR (radioligand, ref Borrmann et al., 2009), the Kd is 0.41 nM.

Regarding “[^3H](R)-8-ethyl-4-methyl-2-(phenyl)1,4,7,8-tetrahydro-5H-imidazo[2,1-i]purin-5-one [[^3H]PSB-11]”, the Kd at human A3 AR (radioligand, ref Müller et al., 2002) is 4.9 nM.
